# Assays:
# Type in all cases: in vivo
# corn (Zea mays) = assay: Preemergence herbicidal activity, corn
# Protocol: (§1) Using the procedure described below, compounds of the invention are evaluated for control of several of the following plant species:
# (§2) The following est procedure is employed. Seeds of selected crops and weeds are planted in soil in flats. For preemergence tests, the flats are treated with the test compound immediately after the planting. For postemergence tests, the seeds are allowed to germinate, and after two weeks the flats are treated with the test compound. The compound to be evaluated is dissolved in acetone, diluted with water, and sprayed over the flats using a carrier volume equivalent to 50 gallons per acre at the rate of application (pounds per acre, lb/A.) specified in the tables. About two weeks after the application of the test compound, the state of growth of the plants is observed and the phytotoxic effect of the compound is evaluated. Tables III and IV give the average percent control achieved by test compounds in terms of the percent of the plants which are killed by the compounds.
# wild oats (Avena fatua) [1] = assay: Postemergence herbicidal activity, wild oats; settings: Postemergence
# Outline: (§3)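 Compound in acetone/water sprayed on soil flats at 50 gal/acre carrier volume, at rates given in lb/A. Preemergence: applied right after planting; postemergence: applied two weeks after germination. Scored about two weeks later as average percent of plants killed.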
# foxtail (Setaria spp.) [2] = assay: Preemergence herbicidal activity, foxtail; settings: Preemergence
# Outline: as §3
# [3] = system: tomato (Lycopersicon esculentum); assay: Postemergence herbicidal activity, tomato; settings: Postemergence
# Outline: as §3
# [4] = system: downybrome (Bromus tectorum); assay: Preemergence herbicidal activity, downybrome; settings: Preemergence
# Outline: as §3
# [5] = system: barnyardgrass (Echinochloa crusgalli); assay: Postemergence herbicidal activity, barnyardgrass; settings: Postemergence
# Outline: (§4)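 Compounds dissolved in acetone, diluted with water, and sprayed onto soil flats at 50 gallons per acre carrier volume at stated lb/A rates. Preemergence: applied immediately after planting; postemergence: applied two weeks after germination.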
# [6] = system: barnyardgrass (Echinochloa crusgalli); assay: Preemergence herbicidal activity, barnyardgrass; settings: Preemergence
# Outline: as §4
# soybean (Glycine max) [7] = assay: Preemergence herbicidal activity, soybean
# Protocol: as §1, §2
# soybean (Glycine max) [8] = assay: Postemergence herbicidal activity, soybean
# Protocol: as §1, §2
# foxtail (Setaria spp.) [9] = assay: Postemergence herbicidal activity, foxtail; settings: Postemergence
# Outline: as §3
# wild oats (Avena fatua) [10] = assay: Preemergence herbicidal activity, wild oats; settings: Preemergence
# Outline: as §3
# [11] = system: tomato (Lycopersicon esculentum); assay: Preemergence herbicidal activity, tomato; settings: Preemergence
# Outline: as §3
# rice (Oryza sativa) [12] = assay: Postemergence herbicidal activity, rice
# Protocol: as §1, §2
# [13] = system: velvetleaf (Abutilon theophrasti); assay: Preemergence herbicidal activity, velvetleaf; settings: Preemergence
# Outline: as §3
# wheat (Triticum sativum) [14] = assay: Preemergence herbicidal activity, wheat
# Protocol: as §1, §2
# rice (Oryza sativa) [15] = assay: Preemergence herbicidal activity, rice
# Protocol: as §1, §2
# wheat (Triticum sativum) [16] = assay: Postemergence herbicidal activity, wheat
# Protocol: as §1, §2
# [17] = system: downybrome (Bromus tectorum); assay: Postemergence herbicidal activity, downybrome; settings: Postemergence
# Outline: as §3
# [18] = system: crabgrass (Digitaria spp.); assay: Preemergence herbicidal activity, crabgrass
# Protocol: as §1, §2
smiles,measurement,setting,value
"CCOC(=O)C(C)Oc1ccc(Oc2ccc(C(F)(F)F)cc2Cl)cc1 (stereo not drawn) [Example 1, Ethyl 2-[4-(2-chloro-4-trifluoromethylphenoxy)phenoxy] propionate]","% Control, Corn",corn (Zea mays); 1/2 lb/A (Table III),0%
same,"% Control, Corn",corn (Zea mays); 1 lb/A (Table III),60%
same,"% Control, Corn",corn (Zea mays); 2 lb/A (Table III),99%
same,"% Control, Wild Oats",wild oats (Avena fatua) [1]; 1/2 lb/A (Table III),100%
same,"% Control, Wild Oats",wild oats (Avena fatua) [1]; 1 lb/A (Table III),100%
same,"% Control, Wild Oats",wild oats (Avena fatua) [1]; 2 lb/A (Table III),100%
same,"% control, Foxtail",foxtail (Setaria spp.) [2]; 1/2 lb/A (Table III),100%
same,"% control, Foxtail",foxtail (Setaria spp.) [2]; 1 lb/A (Table III),100%
same,"% control, Foxtail",foxtail (Setaria spp.) [2]; 2 lb/A (Table III),100%
same,"% control, Tomato",[3]; 1/2 lb/A (Table III),10%
same,"% control, Tomato",[3]; 1 lb/A (Table III),30%
same,"% control, Tomato",[3]; 2 lb/A (Table III),80%
same,"% control, Downybrome",[4]; 1/2 lb/A (Table III),0%
same,"% control, Downybrome",[4]; 1 lb/A (Table III),80%
same,"% control, Downybrome",[4]; 2 lb/A (Table III),90%
same,"% control, Barnyardgrass",[5]; 1/2 lb/A (Table III),100%
same,"% control, Barnyardgrass",[5]; 1 lb/A (Table III),100%
same,"% control, Barnyardgrass",[5]; 2 lb/A (Table III),100%
same,"% control, Barnyardgrass",[6]; 1/2 lb/A (Table III),99%
same,"% control, Barnyardgrass",[6]; 1 lb/A (Table III),100%
same,"% control, Barnyardgrass",[6]; 2 lb/A (Table III),100%
same,"% Control, Soybean",soybean (Glycine max) [7]; 1/2 lb/A (Table III),0%
same,"% Control, Soybean",soybean (Glycine max) [7]; 1 lb/A (Table III),0%
same,"% Control, Soybean",soybean (Glycine max) [7]; 2 lb/A (Table III),0%
same,"% Control, Soybean",soybean (Glycine max) [8]; 1/2 lb/A (Table III),20%
same,"% Control, Soybean",soybean (Glycine max) [8]; 1 lb/A (Table III),30%
same,"% Control, Soybean",soybean (Glycine max) [8]; 2 lb/A (Table III),40%
same,"% control, Foxtail",foxtail (Setaria spp.) [9]; 1/2 lb/A (Table III),100%
same,"% control, Foxtail",foxtail (Setaria spp.) [9]; 1 lb/A (Table III),100%
same,"% control, Foxtail",foxtail (Setaria spp.) [9]; 2 lb/A (Table III),100%
same,"% Control, Wild Oats",wild oats (Avena fatua) [10]; 1/2 lb/A (Table III),0%
same,"% Control, Wild Oats",wild oats (Avena fatua) [10]; 1 lb/A (Table III),60%
same,"% Control, Wild Oats",wild oats (Avena fatua) [10]; 2 lb/A (Table III),99%
same,"% control, Tomato",[11]; 1/2 lb/A (Table III),0%
same,"% control, Tomato",[11]; 1 lb/A (Table III),0%
same,"% control, Tomato",[11]; 2 lb/A (Table III),0%
same,"% Control, Rice",rice (Oryza sativa) [12]; 1/2 lb/A (Table III),70%
same,"% Control, Rice",rice (Oryza sativa) [12]; 1 lb/A (Table III),99%
same,"% Control, Rice",rice (Oryza sativa) [12]; 2 lb/A (Table III),90%
same,"% control, Velvetleaf",[13]; 1/2 lb/A (Table III),0%
same,"% control, Velvetleaf",[13]; 1 lb/A (Table III),0%
same,"% control, Velvetleaf",[13]; 2 lb/A (Table III),0%
same,"% Control, Wheat",wheat (Triticum sativum) [14]; 1/2 lb/A (Table III),0%
same,"% Control, Wheat",wheat (Triticum sativum) [14]; 1 lb/A (Table III),0%
same,"% Control, Wheat",wheat (Triticum sativum) [14]; 2 lb/A (Table III),0%
same,"% Control, Rice",rice (Oryza sativa) [15]; 1/2 lb/A (Table III),0%
same,"% Control, Rice",rice (Oryza sativa) [15]; 1 lb/A (Table III),80%
same,"% Control, Rice",rice (Oryza sativa) [15]; 2 lb/A (Table III),100%
same,"% Control, Wheat",wheat (Triticum sativum) [16]; 1/2 lb/A (Table III),80%
same,"% Control, Wheat",wheat (Triticum sativum) [16]; 1 lb/A (Table III),90%
same,"% Control, Wheat",wheat (Triticum sativum) [16]; 2 lb/A (Table III),95%
same,"% control, Downybrome",[17]; 1/2 lb/A (Table III),70%
same,"% control, Downybrome",[17]; 1 lb/A (Table III),80%
same,"% control, Downybrome",[17]; 2 lb/A (Table III),90%
same,"% Control, Crabgrass",[18]; 1/2 lb/A (Table III),100%
same,"% Control, Crabgrass",[18]; 1 lb/A (Table III),100%
same,"% Control, Crabgrass",[18]; 2 lb/A (Table III),100%
